Data taken from patent US20070208063A1, “Imidazole-based compounds, compositions comprising them and methods of their use” (priority 2006, published 2007).

Key:
[1] = system: lymphocyte egress from the thymus; test: Effects on lymphocytes in mice: FACS of thymus T cells; format: in vivo, mice (F1 hybrids of 129/B6 strain); conditions: administered in drinking water; FIGS. 1-3
Method: Compounds were administered by oral gavage or in drinking water. For oral dosing experiments, compounds were resuspended from crystals at 10 mg/ml in vehicle (e.g., water). Mice (F1 hybrids of 129/B6 strain) were gavaged with a single 100 mg/kg dose of compound (equivalent to 100 mpk of the free base for each compound) or a vehicle-only control, and returned to their cages. Mice were anesthetized using isofluorane eighteen hours after dosing and tissues were collected for analysis as described below. For drinking water studies, compounds were dissolved at 50 mg/L in acidified water (pH=2.8) containing 10 g/L glucose. The mice were allowed free access to compound-containing water (or glucose solution as a control) for 72 hours. At the end of 72 hours, tissues were collected for analysis. Flow cytometry (FACS) measurements were obtained as follows. Twenty five μl whole blood was lysed by hyoptonic shock, washed once in 2 ml FACS wash buffer (FWB: PBS/0.1% BSA/0.1% NaN3/2 mM EDTA) and stained for 30 minutes at 4° C. in the dark with a combination of fluorochrome-conjugated antibodies diluted in 50 μl FWB. After staining, the cells were washed once with 2 ml FWB and resuspended in 300 μl FWB for acquisition. […] Samples were analyzed using a FACSCalibur flow cytometer and CellQuest Pro software (Becton Dickinson Immunocytometry Systems, San Jose, Calif.). […]

circulating lymphocytes = test: Effects on lymphocytes in mice: whole blood counts (CBC); format: in vivo, mice (F1 hybrids of 129/B6 strain)
Method: Unless otherwise indicated, the term “circulating lymphocyte reduction factor” or “CLRF” means the decrease in the number of circulating lymphocytes in mice caused by oral administration of a single dose of a compound at 100 mg/kg, as determined by the method described in the Examples, below. Compounds were administered by oral gavage or in drinking water. For oral dosing experiments, compounds were resuspended from crystals at 10 mg/ml in vehicle (e.g., water). Mice (F1 hybrids of 129/B6 strain) were gavaged with a single 100 mg/kg dose of compound (equivalent to 100 mpk of the free base for each compound) or a vehicle-only control, and returned to their cages. Mice were anesthetized using isofluorane eighteen hours after dosing and tissues were collected for analysis as described below. For drinking water studies, compounds were dissolved at 50 mg/L in acidified water (pH=2.8) containing 10 g/L glucose. The mice were allowed free access to compound-containing water (or glucose solution as a control) for 72 hours. At the end of 72 hours, tissues were collected for analysis. CBC measurements were obtained as follows. Mice were anesthetized with isofluorane and blood was collected from the retroorbital plexus into EDTA blood collection tubes (Capiject-MQK, Terumo Medical Corp., Elkton, Md.). […]

immunological effects = conditions: studies in humans; Thuvander 1994, Houben 1992; cited from earlier work
[2] = system: lymphocytes / mature T cells in the thymus; conditions: administration to rats and mice; cited from earlier work
S1P lyase = molecular target: T1, S1P lyase (Mus musculus, UniProt Q8R0X7); conditions: when administered to mice; Schwab et al. 2005; cited from earlier work
T1 construct: host or cells: mice (in vivo)
T1 sequence (Q8R0X7 1-568): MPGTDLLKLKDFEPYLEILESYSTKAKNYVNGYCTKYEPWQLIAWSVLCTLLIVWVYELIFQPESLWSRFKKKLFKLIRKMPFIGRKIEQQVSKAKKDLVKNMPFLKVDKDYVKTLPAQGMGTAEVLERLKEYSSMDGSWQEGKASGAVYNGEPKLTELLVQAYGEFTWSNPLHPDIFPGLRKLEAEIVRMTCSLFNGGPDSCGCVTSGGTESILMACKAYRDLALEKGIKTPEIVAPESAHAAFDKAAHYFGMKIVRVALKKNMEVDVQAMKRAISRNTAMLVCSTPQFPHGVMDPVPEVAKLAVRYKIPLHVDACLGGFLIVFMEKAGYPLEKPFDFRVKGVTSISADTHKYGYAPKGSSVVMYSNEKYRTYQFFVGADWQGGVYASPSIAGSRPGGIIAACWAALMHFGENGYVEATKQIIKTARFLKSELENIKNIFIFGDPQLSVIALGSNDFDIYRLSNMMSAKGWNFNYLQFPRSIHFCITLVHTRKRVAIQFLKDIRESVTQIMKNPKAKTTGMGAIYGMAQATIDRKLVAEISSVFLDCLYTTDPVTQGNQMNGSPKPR

## CC(=O)c1nc(C(O)C(O)C(O)CO)c[nH]1 (stereo not shown) [THI, 2-acetyl-4-tetrahydroxybutylimidazole]
[1]
  effect on lymphocyte egress from the thymus: diminished lymphocyte egress from the thymus
Circulating lymphocytes
  effect on circulating lymphocytes: capable of reducing circulating lymphocytes in mice
Immunological effects
  immunological effects: no immunological effects
[2]
  lymphopenia: induces lymphopenia
  mature T cells in the thymus: causes the accumulation of mature T cells in the thymus
S1P lyase
  S1P lyase activity: inhibits S1P lyase activity

## CC(=O)c1nc(C)c([C@@H](O)[C@H](O)[C@H](O)CO)s1 [Compound 2, 1-(4-methyl-5-((1S,2R,3R)-1,2,3,4-tetrahydroxybutyl)thiazol-2-yl)ethanone]
Circulating lymphocytes
  effect on circulating lymphocytes: little or no effect on circulating lymphocytes
